According to patent publication US20030134335A1, “Method for reducing the immunogenicity of heterologous proteins by elimination of t-cell epitopes” (priority 1999, published 2003):

Assays:
[1] = test system: SakSTAR specific T-cell clones (CD3+, CD4+); experiment: Functional T-cell assay: proliferation (BrdU) of SakSTAR-specific T-cell clones with APC and antigen/peptide; assay type: cell-based, human; settings: for immunogenic / functional T-cell epitope by T-cell clone specificity: over 100 SakSTAR specific T-cell clones, SakSTAR-derived peptides; for proliferation of region(71-87)-specific T-cell clones: positive if at least three times the background
Description: For the cloning of SakSTAR-specific T-cell clones, approximately 15×10^6 PBMC from each donor were stimulated with an optimal concentration of SakSTAR for 7-9 days. The visible T-cell clones were harvested under the microscope, and individually re-stimulated in a 96-well flat-bottom plate with autologous PBMC as antigen presenting cells (APC). These wells were supplemented on day 1 with 20U/ml recombinant human interleukin-2 (IL-2) (Boehringer Mannheim, Mannheim, Germany) and allowed to grow for 8-11 days. Re-stimulation was repeated every 8-11 days under the same conditions. After 3 to 6 passages, autologous PBMC were replaced by autologous Epstein Barr Virus (EBV)-immortalized B-cell lines as antigen presenting cells.
To identify immunogenic regions on the SakSTAR molecule, the isolated T-cell clones were tested for their specificity using SakSTAR-derived peptides. In total 25 peptides 17 residues in length, each overlapping 12 residues were synthesized using a fluorenylmethoxy-carbonyl-protected amino acid coupling procedure (Hiemstra et al., 1997). Each individual T-cell clone was tested for its specificity by co-culturing T-cells, Mitomycin C-treated autologous EBV-B-cells and antigen or the appropriate peptide for 4 days. Subsequently, the T-cell clones were pulsed for 24 hours with BrdU, harvested and analyzed for their BrdU content.

PBMC = experiment: Proliferation (stimulation index) of SakSTAR-myc-primed PBMC re-stimulated with antigen/peptides; assay type: cell-based, human; settings: for cellular immune response (stimulation index) of SakSTAR-myc primed PBMC: PBMC from 10 region(71-87)-immunoreactive donors, value exceeding 3 positive
Description: However, the vast majority of humans does also recognize additional immunogenic SakSTAR regions (untouched in these SakSTAR-variants), which would invalidate such an experiment. Therefore, 25 other healthy donors were screened for SakSTAR immunoreactivity. PBMC were thawed, washed four times in 1% human serum albumin, and cultured at 1.8×10^6 cells/ml in RPMI 1640 supplemented with 5%. human serum (Biowitthaker, Walkersville, Md.) and gentamycin with or without SakSTAR-myc for 10 days in a humidified CO2 incubator. The non-adherent cells were harvested and restimulated with no antigen, SakSTAR-myc or different peptides. For antigen presenting cells, irradiated autologous PBMC were T-cell depleted, using CD3-M450 Dynabeads (Dynal, Compiégne, France) according manufacturer procedures (FACS analysis indicated >95% non-T-cells). The plates were incubated at 37° C. under humidified atmosphere containing 5% CO2 for 5 days, and pulsed with BrdU for the last 22 to 24 hours.
Subsequently, the cells were harvested and analyzed for their BrdU content (BrdU ELISA, Boehringer Mannheim, Mannheim, Germany). A stimulation index was calculated, by dividing the OD obtained from the PBMC in response to an antigen/peptide by that of the spontaneous proliferation (no antigen) control. A value exceeding 3 was considered positive, indicating the proliferation of specific T-cells to that particular antigen/peptide.

For “AYKEFRVVELD [S1, 11-mer peptide, SakSTAR residues 72-82]”, the “immunogenic / functional T-cell epitope by T-cell clone specificity” value (“immunogenic / functional T-cell epitope” below) [1] was “functional T-cell epitopes” and the “proliferation of region(71-87)-specific T-cell clones” value [1] was “clones Tc-1 to Tc-6 proliferated”.
“EFRVVELDPSA [S2, 11-mer peptide, SakSTAR residues 75-85]” was tested, and the “immunogenic / functional T-cell epitope” value [1] was “functional T-cell epitopes” and the “proliferation of region(71-87)-specific T-cell clones” value [1] was “Tc-7 to Tc-10 recognize the S2 peptide”.
In the case of HYVEFPIKPGT [43-HYVEFPIKPGT-53], the “immunogenic / functional T-cell epitope” value [1] is reported as “no T-cell clones were isolated”.
With “TAYAAFAVVALAPSAKI [quintuple (K74A, E75A, R77A, E80A, D82A), multiple mutation(71-87) peptide]” the “cellular immune response (stimulation index) of SakSTAR-myc primed PBMC” value (PBMC) was “none of the tested donors showed a positive cellular immune response”.
With “TAYKEFAVVALAPSAKI [triple (R77A, E80A, D82A), multiple mutation(71-87) peptide]” the “cellular immune response (stimulation index) of SakSTAR-myc primed PBMC” value (PBMC) was “none of the tested donors showed a positive cellular immune response”.
For “TAYKEFAVVALDPSAKI [double (R77A, E80A), multiple mutation(71-87) peptide]”, the “cellular immune response (stimulation index) of SakSTAR-myc primed PBMC” value (PBMC) was “none of the tested donors showed a positive cellular immune response”.
With “TAYKEFRVVELDPSAKI [71-TAYKEFRVVELDPSAKI-87, wild type SakSTAR(71-87) 17-mer peptide]” the “donors from which isolated T-cell clones were stimulated by the peptide” value ([1]; T-cell clones from 10 healthy donors) was 9 of 10 and the “SakSTAR positive donors with a cellular immune response to the peptide” value (PBMC; 20 identified SakSTAR positive donors, stimulation index exceeding 3 positive) was 80%.
In the case of “TAYQEFSVVSLSPSAKI [quadruple (K74Q, R77S, E80S, D82S), multiple mutation(71-87) peptide]”, the “cellular immune response (stimulation index) of SakSTAR-myc primed PBMC” value (PBMC) is reported as “none of the tested donors showed a positive cellular immune response”.
TYYDKNKKKEE [90-TYYDKNKKKEE-100] was tested, and the “immunogenic / functional T-cell epitope” value [1] was “no T-cell clones were isolated”.
